Test results taken from patent US9273084B2, “Moenomycin analogs, methods of synthesis, and uses thereof” (priority 2012, dated 2016).

Legend:
Type in all cases: cell-based
[1] = test system: E. coli NR698; design: unit not given beside the values; conditions: LB, 35-37° C., 20 h
Method: (§1) A 96 well plate with 100 μL test medium in all wells was prepared by handheld multipipettor. A stock solution of the antibiotic or compound in DMSO (0.05˜10 mg/mL, 5 μL) and the same medium (95 μL) were put together into column one, where the compound concentration doubled the highest one to be tested. Two columns were necessary for each compound to check the reproducibility. The compound was diluted by adding 100 μL from column one to column two with a 50% volume mix done three times; diluting serially across the plate was continued.
(§2) The day before the assay was scheduled to be run, strains were suspended in the test media (Brain Heart Infusion (BHI) containing 0.1% casamino acids for S. aureus, S. epidermidis, and E. faecalis, Trypticase Soy Broth (TSB) containing 5% sheep blood for S. pneumoniae, and Lysogeny Broth (LB) for E. coli) and incubated overnight at 35-37° C. The suspension was diluted with the same media to 1%, 100 μL of which was added to each well of the MIC plate. The MIC plate was incubated at 35-37° C. for 20 h. A thiazolyl blue tetrazolium bromide (MTT) solution (1 mg/mL-water, 50 μL) was added into each well and the resulting MIC plate was incubated at 35-37° C. for a few hours to stain wells in which cell proliferated. Growth is also visible as any turbidity in wells.

[2] = test system: S. pneumoniae 6303; assay: MIC assay, 96 well broth dilution with MTT staining; conditions: TSB containing 5% sheep blood, 35-37° C., 20 h
Method: as §1, §2

[3] = test system: S. pneumoniae #1629; assay: as above; conditions: TSB containing 5% sheep blood, 35-37° C., 20 h
Method: as §1, §2

[4] = test system: E. coli MG1655; assay: as above; design: unit not given beside the values; conditions: LB, 35-37° C., 20 h
Method: as §1, §2

[5] = test system: S. aureus 13709; assay: as above; design: unit not given beside the values; conditions: BHI containing 0.1% casamino acids, 35-37° C., 20 h
Method: as §1, §2

[6] = test system: S. aureus 25923; assay: as above; design: unit not given beside the values; conditions: S. aureus 25923 (second strain line); BHI containing 0.1% casamino acids; 35-37° C., 20 h
Method: as §1, §2

[7] = test system: S. epidermidis 1228; assay: as above; design: unit not given beside the values; conditions: BHI containing 0.1% casamino acids, 35-37° C., 20 h
Method: as §1, §2

[8] = test system: S. epidermidis 700562; assay: as above; design: unit not given beside the values; conditions: BHI containing 0.1% casamino acids, 35-37° C., 20 h
Method: as §1, §2

[9] = test system: E. faecalis 33186; assay: as above; design: unit not given beside the values; conditions: BHI containing 0.1% casamino acids, 35-37° C., 20 h
Method: as §1, §2

[10] = test system: E. faecalis 29212; assay: as above; design: unit not given beside the values; conditions: BHI containing 0.1% casamino acids, 35-37° C., 20 h
Method: as §1, §2

[11] = S. aureus 13709 (first strain line)
[12] = S. aureus 13709 (third strain line)

| Compound | MIC [1] | MIC [2] | MIC [3] | MIC [4] | MIC [5, 11] | MIC [5, 12] | MIC [6] | MIC [7] | MIC [8] | MIC [9] | MIC [10] |
| --- | --- | --- | --- | --- | --- | --- | --- | --- | --- | --- | --- |
| CC(=O)NC1C(OC2C(COC3OC(CO)C(O)C(O)C3O)OC(OC3C(OP(=O)(O)OCC(OCC=C(C)CCC=C(C)CCC=C(C)CCC=C(C)C)C(=O)O)OC(C(N)=O)C(C)(O)C3OC(N)=O)C(NC(C)=O)C2O)OC(C)C(OC2OC(C(=O)NC3=C(O)CCC3=O)C(O)C(O)C2O)C1O.N [1b, N1-[(2-Hydroxy-5-oxo-cyclopenten-1-yl)-(5S)-β-D-galactopyranuronamide]-(1→4)-2-acetamide-2,6-dideoxy-β-D-gluopyranosyl-(1→4)-[β-D-glucopyranosyl-(1→6)]-2-acetamido-2-deoxy-β-D-glucopyranosyl)-(1→2)-3-O-carbamoyl-1-O—{[(R)-2-carboxy-2-((2Z,6E,10E)-3,7,11,15-tetramethyl-hexadeca-2,6,10,14-tetraen-1-yloxy)ethoxy]hydroxyphosphoryl}-4-C-methyl-α-D-glucopyranuronamide] | 0.061 | 2.0 | 3.9 | 63 | 3.9 | 2.0 | 3.9 |  |  |  |  |
| CC(=O)NC1C(OC2C(COC3OC(CO)C(O)C(O)C3O)OC(OC3C(OP(=O)(O)OCC(OCC=C(C)CCC=C(C)CCC=C(C)C)C(=O)O)OC(C(N)=O)C(C)(O)C3OC(N)=O)C(NC(C)=O)C2O)OC(C)C(OC2OC(C(=O)NC3=C(O)CCC3=O)C(O)C(O)C2O)C1O.N [1c, N1-[(2-Hydroxy-5-oxo-cyclopenten-1-yl)-(5S)-β-D-galactopyranuronamide]-(1→4)-2-acetamide-2,6-dideoxy-β-D-gluopyranosyl-(1→4)-[β-D-glucopyranosyl-(1→6)]-2-acetamido-2-deoxy-β-D-glucopyranosyl)-(1→2)-3-O-carbamoyl-1-O—{[(R)-2-carboxy-2-((2Z,6E)-3,7,11-trimethyl-dodeca-2,6,10-trien-1-yloxy)ethoxy]hydroxyphosphoryl}-4-C-methyl-α-D-glucopyranuronamide] | 0.98 | 63 | 31 | > 250 | >250 >250 250 | >250 >250 250 | >250 >250 250 | >250 >250 | >250 >250 | 250 >250 | 250 >250 |
| CCCCCCCCCCCCCCCCCCCCOC(COP(=O)(O)OC1OC(C(N)=O)C(C)(O)C(OC(N)=O)C1OC1OC(COC2OC(CO)C(O)C(O)C2O)C(OC2OC(C)C(OC3OC(C(=O)NC4=C(O)CCC4=O)C(O)C(O)C3O)C(O)C2NC(C)=O)C(O)C1NC(C)=O)C(=O)O.N [1d, N1-[(2-Hydroxy-5-oxo-cyclopenten-1-yl)-(5S)-β-D-galactopyranuronamide]-(1→4)-2-acetamide-2,6-dideoxy-β-D-gluopyranosyl-(1→4)-[β-D-glucopyranosyl-(1→6)]-2-acetamido-2-deoxy-β-D-glucopyranosyl)-(1→2)-3-O-carbamoyl-1-O—{[(R)-2-carboxy-2-(eicosan-1-yloxy)ethoxy]hydroxyphosphoryl}-4-C-methyl-α-D-glucopyranuronamide] | 0.0049 | 2.0 | 3.1 | 7.8 | 1.3 | 0.63 | 0.63 | 0.63 | 1.3 |  |  |
| CCCCCCCCCCCCCCCCCCOC(COP(=O)(O)OC1OC(C(N)=O)C(C)(O)C(OC(N)=O)C1OC1OC(COC2OC(CO)C(O)C(O)C2O)C(OC2OC(C)C(OC3OC(C(=O)NC4=C(O)CCC4=O)C(O)C(O)C3O)C(O)C2NC(C)=O)C(O)C1NC(C)=O)C(=O)O.N [1e, N1-[(2-Hydroxy-5-oxo-cyclopenten-1-yl)-(5S)-β-D-galactopyranuronamide]-(1→4)-2-acetamide-2,6-dideoxy-β-D-gluopyranosyl-(1→4)-[β-D-glucopyranosyl-(1→6)]-2-acetamido-2-deoxy-β-D-glucopyranosyl)-(1→2)-3-O-carbamoyl-1-O—{[(R)-2-carboxy-2-(octadecan-1-yloxy)ethoxy]hydroxyphosphoryl}-4-C-methyl-α-D-glucopyranuronamide] | 0.0024 |  |  | 63 | 2.0 | 0.98 | 0.98 |  |  | 0.98 | 0.49 |
| CC(=O)NC1C(OC2C(COC3OC(CO)C(O)C(O)C3O)OC(OC3C(OP(=O)(O)OCC(OCCCCCCCCCCC(F)(F)C(F)(F)C(F)(F)C(F)(F)C(F)(F)C(F)(F)C(F)(F)C(F)(F)F)C(=O)O)OC(C(N)=O)C(C)(O)C3OC(N)=O)C(NC(C)=O)C2O)OC(C)C(OC2OC(C(=O)NC3=C(O)CCC3=O)C(O)C(O)C2O)C1O.N [1f, N1-[(2-Hydroxy-5-oxo-cyclopenten-1-yl)-(5S)-β-D-galactopyranuronamide]-(1→4)-2-acetamide-2,6-dideoxy-β-D-gluopyranosyl-(1→4)-[β-D-glucopyranosyl-(1→6)]-2-acetamido-2-deoxy-β-D-glucopyranosyl)-(1→2)-3-O-carbamoyl-1-O—{[(R)-2-carboxy-2-(11,11,12,12,13,13,14,14,15,15,16,16,17,17,18,18,18-heptadecafluoro-octadecan-1-yloxy)ethoxy]hydroxyphosphoryl}-4-C-methyl-α-D-glucopyranuronamide] | > 0.16 | 2.0 | 0.98 | 250 | 3.9 | 2.0 | 2.0 | 0.98 | 2.0 | 2.0 | 0.98 |
| CCCCCCCCCCCCCCCCOC(COP(=O)(O)OC1OC(C(N)=O)C(C)(O)C(OC(N)=O)C1OC1OC(COC2OC(CO)C(O)C(O)C2O)C(OC2OC(C)C(OC3OC(C(=O)NC4=C(O)CCC4=O)C(O)C(O)C3O)C(O)C2NC(C)=O)C(O)C1NC(C)=O)C(=O)O.N [1g, N1-[(2-Hydroxy-5-oxo-cyclopenten-1-yl)-(5S)-β-D-galactopyranuronamide]-(1→4)-2-acetamide-2,6-dideoxy-β-D-gluopyranosyl-(1→4)-[β-D-glucopyranosyl-(1→6)]-2-acetamido-2-deoxy-β-D-glucopyranosyl)-(1→2)-3-O-carbamoyl-1-O—{[(R)-2-carboxy-2-(hexadecan-1-yloxy)ethoxy]hydroxyphosphoryl}-4-C-methyl-α-D-glucopyranuronamide] | 0.16 | 16 | 16 | 250 | 16 | 16 | 16 | 16 | 31 | 16 | 31 |
| CC(=O)NC1C(OC2C(COC3OC(CO)C(O)C(O)C3O)OC(OC3C(OP(=O)(O)OCC(OCc4cccc(OCc5cccc(-c6cccc(OCc7cccc(-c8ccccc8)c7)c6)c5)c4)C(=O)O)OC(C(N)=O)C(C)(O)C3OC(N)=O)C(NC(C)=O)C2O)OC(C)C(OC2OC(C(=O)NC3=C(O)CCC3=O)C(O)C(O)C2O)C1O.N [1h, N1-[(2-Hydroxy-5-oxo-cyclopenten-1-yl)-(5S)-β-D-galactopyranuronamide]-(1→4)-2-acetamide-2,6-dideoxy-β-D-gluopyranosyl-(1→4)-[β-D-glucopyranosyl-(1→6)]-2-acetamido-2-deoxy-β-D-glucopyranosyl)-(1→2)-3-O-carbamoyl-1-O—{[(R)-2-carboxy-2-(3-((3′-([1,1′-biphenyl]-3-ylmethoxy)-[1,1′-biphenyl]-3-yl)methoxy)phenylmethan-1-yloxy)ethoxy]hydroxyphosphoryl}-4-C-methyl-α-D-glucopyranuronamide] | 0.039 | 0.98 | 2.0 | 125 | 0.39 | 0.20 | 0.20 |  |  | 0.78 | 0.39 |
